For series [1], the system named is TBEV. Put plainly: microbe, parasite or virus in culture. The class given is cell-based, Tick-borne encephalitis virus strain Absettarov. The conditions noted are these: Tick-borne encephalitis virus, PEK, read-out: TBEV EC50.
In series [2] the test system is WNV. Nature of the series: microbe, parasite or virus in culture. The conditions noted are these: for EC50: West Nile virus, Vero, read-out: WNV EC50. Format: cell-based, West Nile virus strain Strix nebulosa-12.
For series [3], the system named is YFV. Put plainly: microbe, parasite or virus in culture. The class given is cell-based, yellow fever virus strain 17D. The conditions noted are these: Yellow fever virus, read-out: YFV EC50.
A short description of series [4]: in vitro. The conditions noted are these: pig.
The nature of series [5]: in vitro. The conditions noted are these: African green monkey.
The nature of series [6]: in vitro. The conditions noted are these: African green monkey. This is another data set of the same source.
Series [7] is described as follows: in vitro. The conditions noted are these: pig. The source holds these as a separate data set.
Series [8] has as its system Vero cells.
In series [9] the test system is PEK cells.
Series [10] concerns DENV-1. The conditions noted are these: cited from earlier work.
The subject of series [11] is DENV-2. The conditions noted are these: cited from earlier work.
For series [12], the system named is DENV-3. The conditions noted are these: cited from earlier work.

Where only a bound is given, the exact number is not on record here.

In general, EC50 refers to the midpoint of the concentration-response curve. `O=S(=O)(Cc1ccccc1)NC1=NOC2(CCCCCCC2)C1` [3b]: the figures for the EC50 in [1], in series [2] and in series [3] were 13 ± 8 µM, 9.9 ± 1.5 µM and 24 ± 11 µM, respectively. Moreover, the CC50 in series [4], in series [5], in series [6] and in series [7] was above 50 µM throughout.

Consider `O=S(=O)(NC1=NOC2(CCCCCCC2)C1)c1ccc2ccccc2c1` [3j], for which the EC50 came out at 20 ± 11 µM in series [1] and 20.3 ± 0.3 µM in [2]. Besides, in [8], the “acute and chronic cytotoxicity in Vero cells (in words)” value (shortened to “acute and chronic cytotoxicity”) is “both acute and chronic cytotoxicity”. The CC50 in series [4] and in series [7] was above 50 µM in each case.

One may read the melting point as the temperature of the solid-liquid transition. For the compound `O=[N+]([O-])c1ccccc1S(=O)(=O)N(C1=NOC2(CCCCCCC2)C1)S(=O)(=O)c1ccccc1[N+](=O)[O-]` [4h, 2-Nitro-N-((2-nitrophenyl)sulfonyl)-N-(1-oxa-2-azaspiro[4.7]dodec-2-en-3-yl)benzenesulfonamide], the melting point lay within 155 to 157 °C. For the same compound, the half-maximal effective concentration (EC50) in [1] was 20 ± 11 µM. Also, the EC50 in series [2] worked out at 7.8 ± 1 µM. For the same compound, the “acute and chronic cytotoxicity” value in [8] was “only acute toxic”. For the same compound, in series [4], the CC50 is above 50 µM. Further, the CC50 in [7] is above 50 µM.

Compound `O=[N+]([O-])c1ccc(S(=O)(=O)N(C2=NOC3(CCCCCCC3)C2)S(=O)(=O)c2ccc([N+](=O)[O-])cc2)cc1` [4i, 4-Nitro-N-((4-nitrophenyl)sulfonyl)-N-(1-oxa-2-azaspiro[4.7]dodec-2-en-3-yl)benzenesulfonamide] yielded a melting point of 178 to 180 °C. For the same compound, the EC50 in series [1] was 2 ± 0.5 µM. The EC50 in series [2] worked out at 5.3 ± 1 µM. In series [8], the “acute and chronic cytotoxicity” value was “both acute and chronic cytotoxicity”. In addition, the CC50 in series [4] is above 50 µM. Also, the CC50 in series [7] was above 50 µM.

Regarding `O=S(=O)(c1ccc2ccccc2c1)N(C1=NOC2(CCCCCCC2)C1)S(=O)(=O)c1ccc2ccccc2c1` [4j, N-(Naphthalen-2-ylsulfonyl)-N-(1-oxa-2-azaspiro[4.7]dodec-2-en-3-yl)naphthalene-2-sulfonamide], the melting point fell in the range of 160 to 161 °C. For the same compound, in [1], the EC50 is 17 ± 3 µM. Also, in series [2], the EC50 turned out to be 1.3 ± 0.5 µM. The CC50 in series [4] was above 50 µM. Also, the CC50 in [5] was above 50 µM. In series [6], this compound had a CC50 above 50 µM. In addition, the CC50 in [7] is above 50 µM.

Compound `O=S(=O)(c1cccs1)N(C1=NOC2(CCCCCCC2)C1)S(=O)(=O)c1cccs1` [4k, N-(1-Oxa-2-azaspiro[4.7]dodec-2-en-3-yl)-N-(thiophen-2-ylsulfonyl)thiophene-2-sulfonamide] came in with a melting point of 147 °C. In addition, in series [1], the concentration giving a half-maximal response (EC50) was above 50 µM. Moreover, the EC50 in series [2] was 10 ± 4 µM. The CC50 in series [4] is above 50 µM. The same compound came in with a CC50 in series [5] above 50 µM. This compound also showed a CC50 in series [6] above 50 µM. The same compound yielded a CC50 in series [7] above 50 µM.

As to `O=S(=O)(c1cccnc1)N(C1=NOC2(CCCCCCC2)C1)S(=O)(=O)c1cccnc1` [4l, N-(Pyridin-3-ylsulfonyl)-N-(1-oxa-2-azaspiro[4.7]dodec-2-en-3-yl)pyridine-3-sulfonamide], the melting point lay in the range of 151 to 152 °C. Further, the concentration giving a half-maximal response (EC50) in series [1] was 15 ± 4 µM. In series [2], the EC50 stood at 8 ± 4 µM. Moreover, the CC50 in series [4] is above 50 µM. Further, the CC50 in [5] is above 50 µM. Also, the CC50 in series [6] was above 50 µM. Besides, the CC50 in [7] is above 50 µM.

In turn, `O=S(=O)(Cc1ccccc1)N(C1=NOC2CCCCCCC12)S(=O)(=O)Cc1ccccc1` (centres unmarked) [5b, N-(Benzylsulfonyl)-N-(3a,4,5,6,7,8,9,9a-octahydrocycloocta[d]isoxazol-3-yl)-1-phenylmethanesulfonamide] displayed a melting point of 198 to 199 °C. Moreover, in series [1], the half-maximal effective concentration (EC50) worked out at 21.7 ± 2.8 µM. Besides, in series [2], the EC50 was found to be 6.3 ± 1.2 µM. The CC50 in series [4] was above 50 µM. Besides, the CC50 in series [5] was above 50 µM. The compound also returned a CC50 in [6] above 50 µM. Further, in series [7], the CC50 is above 50 µM.

Compound `O=S(=O)(c1ccccc1)N(C1=NOC2CCCCCCC12)S(=O)(=O)c1ccccc1` (centres unmarked) [5c, N-(3a,4,5,6,7,8,9,9a-Octahydrocycloocta[d]isoxazol-3-yl)-N-(phenylsulfonyl)benzenesulfonamide] yielded a melting point of 107 to 108 °C. Further, in series [1], the half-maximal effective concentration (EC50) is above 50 µM. In addition, the EC50 in [2] was 18 ± 4 µM. For the same compound, the CC50 in series [4] is above 50 µM. Moreover, in series [5], the CC50 was above 50 µM. This compound also returned a CC50 in series [6] above 50 µM. For the same compound, the CC50 in series [7] was above 50 µM.

`Cc1ccc(S(=O)(=O)N(C2=NOC3CCCCCCC23)S(=O)(=O)c2ccc(C)cc2)cc1` (centres unmarked) [5d, 4-Methyl-N-(3a,4,5,6,7,8,9,9a-octahydrocycloocta[d]isoxazol-3-yl)-N-tosylbenzenesulfonamide] came in with a melting point of 113 to 114 °C. Further, the EC50 in series [1] turned out to be 34 ± 4 µM. Further, in [2], the EC50 came to 14 ± 8 µM. In [4], this compound registered a CC50 above 50 µM. For the same compound, the CC50 in [5] was above 50 µM. In series [6], this compound showed a CC50 above 50 µM. Besides, in series [7], the CC50 was above 50 µM.

`Cc1cc(C)c(S(=O)(=O)N(C2=NOC3CCCCCCC23)S(=O)(=O)c2c(C)cc(C)cc2C)c(C)c1` (centres unmarked) [5e, N-(Mesitylsulfonyl)-2,4,6-trimethyl-N-(3a,4,5,6,7,8,9,9a-octahydrocycloocta[d]isoxazol-3-yl)benzenesulfonamide] displayed a melting point of 148 to 149 °C. Moreover, the EC50 in series [1] turned out to be 10 ± 5 µM. The concentration for a half-maximal effect (EC50) in series [2] is 4 ± 0.6 µM. The same compound registered a CC50 in [4] above 50 µM. In series [5], this compound returned a CC50 above 50 µM. In series [6], this compound registered a CC50 above 50 µM. The same compound had a CC50 in [7] above 50 µM.

In the case of `O=S(=O)(c1ccc2c(c1)OCCO2)N(C1=NOC2CCCCCCC12)S(=O)(=O)c1ccc2c(c1)OCCO2` (centres unmarked) [5f, N-((2,3-Dihydrobenzo[b][1, 4]dioxin-6-yl)sulfonyl)-N-(3a,4,5,6,7,8,9,9a-octahydrocycloocta[d]isoxazol-3-yl)-2,3-dihydrobenzo[b][1, 4]dioxine-6-sulfonamide], the melting point is 129 to 130 °C. In addition, the 50% effective concentration (EC50) in series [1] was determined as 29 ± 7 µM. Moreover, in [2], the concentration giving a half-maximal response (EC50) amounted to 16 ± 10 µM. For the same compound, the CC50 in [4] was above 50 µM. This compound gave a CC50 in [5] above 50 µM. In addition, in [6], the CC50 was above 50 µM. In series [7], this compound registered a CC50 above 50 µM.

In turn, `O=S(=O)(c1ccc(F)cc1F)N(C1=NOC2CCCCCCC12)S(=O)(=O)c1ccc(F)cc1F` (centres unmarked) [5g, N-((2,4-difluorophenyl)sulfonyl)-2,4-difluoro-N-(3a,4,5,6,7,8,9,9a-octahydrocycloocta[d]isoxazol-3-yl)benzenesulfonamide] showed a melting point of 129 to 131 °C. Also, the 50% effective concentration (EC50) in series [1] is 33 ± 15 µM. For the same compound, the 50% effective concentration (EC50) in series [2] is 12 ± 6 µM. The CC50 in series [4] is above 50 µM. In series [5], this compound gave a CC50 above 50 µM. In series [6], this compound gave a CC50 above 50 µM. Moreover, in [7], the CC50 is above 50 µM.

For `O=[N+]([O-])c1ccc(S(=O)(=O)N(C2=NOC3CCCCCCC23)S(=O)(=O)c2ccc([N+](=O)[O-])cc2)cc1` (centres unmarked) [5i, 4-Nitro-N-((4-nitrophenyl)sulfonyl)-N-(3a,4,5,6,7,8,9,9a-octahydrocycloocta[d]isoxazol-3-yl)benzenesulfonamide], the melting point lay in the range of 139 to 140 °C. In addition, the EC50 in series [1] is 19 ± 4 µM. For the same compound, the EC50 in series [2] worked out at 19 ± 11 µM. Moreover, in series [9], the “cytotoxicity against PEK cells during 7 days of incubation (in words)” value is “slightly toxic”. In series [4], this compound came in with a CC50 of 41 ± 1.8 µM. The compound further registered a CC50 in [5] above 50 µM. Further, the CC50 in series [6] was above 50 µM. The compound also displayed a CC50 in series [7] above 50 µM.

Compound `O=S(=O)(c1ccc2ccccc2c1)N(C1=NOC2CCCCCCC12)S(=O)(=O)c1ccc2ccccc2c1` (centres unmarked) [5j, N-(Naphthalen-2-ylsulfonyl)-N-(3a,4,5,6,7,8,9,9a-octahydrocycloocta[d]isoxazol-3-yl)naphthalene-2-sulfonamide] displayed a melting point of 160 to 162 °C. Besides, in series [1], the 50% effective concentration (EC50) worked out at 10 ± 2.4 µM. In addition, in series [2], the EC50 is 5.9 ± 1.8 µM. The CC50 in series [4] is above 50 µM. In [5], this compound registered a CC50 above 50 µM. In addition, the CC50 in series [6] was above 50 µM. For the same compound, in [7], the CC50 was above 50 µM.

In the case of `O=S(=O)(c1cccs1)N(C1=NOC2CCCCCCC12)S(=O)(=O)c1cccs1` (centres unmarked) [5k, N-(3a,4,5,6,7,8,9,9a-Octahydrocycloocta[d]isoxazol-3-yl)-N-(thiophen-2-ylsulfonyl)thiophene-2-sulfonamide], the melting point lay within 131 to 132 °C. Besides, the EC50 in series [1] is 20 ± 3 µM. The concentration for a half-maximal effect (EC50) in [2] is 18 ± 4 µM. In series [8], the “acute and chronic cytotoxicity” value is “both acute and chronic cytotoxicity”. The compound further displayed a CC50 in [4] above 50 µM. The compound also returned a CC50 in series [7] above 50 µM.

For `O=S(=O)(c1cccnc1)N(C1=NOC2CCCCCCC12)S(=O)(=O)c1cccnc1` (centres unmarked) [5l, N-(3a,4,5,6,7,8,9,9a-Octahydrocycloocta[d]isoxazol-3-yl)-N-(pyridin-3-ylsulfonyl)pyridine-3-sulfonamide], the melting point lay in the range of 150 to 151 °C. Besides, the EC50 in [1] is 36 ± 4 µM. In addition, in [2], the “anti-WNV activity (in words)” value is reported as “complete loss of anti-WNV activity” and the half-maximal effective concentration (EC50) was above 50 µM. The same compound gave a CC50 in [4] above 50 µM. Further, the CC50 in series [5] is above 50 µM. In series [6], the CC50 was above 50 µM. The compound further yielded a CC50 in series [7] above 50 µM.

For `CC(C)CCN1C(=O)[C@]2(CC(=O)Nc3c2nnn3[C@@H](C)c2ccc(Cl)cc2)c2cc(Cl)ccc21` [JMX0254], the figures for the concentration giving a half-maximal response (EC50) in series [10], in series [11] and in series [12] were 780 nM, 160 nM and 35 nM, respectively.

The values above are taken from article PMC10341786 (International Journal of Molecular Sciences, 2023).
